Laboratory results reported in patent US20230220047A1, “PEPTIDES FOR TREATMENT OF SEPSIS AND CANCER” (NORWEGIAN UNIVERSITY OF SCIENCE AND TECHNOLOGY (NTNU), priority 2020, published 2023).

Key:
TLR4 [1] = test: Primary human macrophages stimulated with LPS: cytokine mRNA and p38 MAPK phosphorylation; format: cell-based; settings: LPS-treated primary human macrophages
Method: (§1) Primary human macrophages (PBMC derived, differentiated in media with 10% human serum and M-CSF 20 ng/ml, 7 days) were stimulated with K12 LPS (100 ng/ml), FSL-1 (100 ng/ml) or CL075 (3 μg/ml). […] (B) qPCR for mRNA expression of IFNβ, IL-6, TNF and IL-1β, average for three biological replicates, error bars ±SD.
(§2) The effect of P7-Pen on TLR2-mediated pro-inflammatory cytokine expression was investigated.

SLAMF1 = target: T1, SLAMF1 (Homo sapiens, UniProt Q13291); test: Co-precipitation of SLAMF1 with peptide; format: binding; settings: data not shown
T1 sequence (Q13291 21-335): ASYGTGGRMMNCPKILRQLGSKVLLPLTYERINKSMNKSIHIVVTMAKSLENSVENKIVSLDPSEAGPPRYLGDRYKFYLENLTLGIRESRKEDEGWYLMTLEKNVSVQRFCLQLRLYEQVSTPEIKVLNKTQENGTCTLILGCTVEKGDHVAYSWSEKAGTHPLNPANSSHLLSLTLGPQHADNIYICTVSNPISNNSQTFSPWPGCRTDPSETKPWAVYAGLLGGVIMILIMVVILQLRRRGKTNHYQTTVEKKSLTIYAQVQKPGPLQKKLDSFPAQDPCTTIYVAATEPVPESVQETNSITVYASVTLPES
Excerpt: The striking effect of the P7 peptide on bacterial uptake could explain the blockade of TLR4-mediated IFNβ secretion by this peptide, because activation of IFNβ expression can only be initiated from the endosomal compartment. This effect could also be mediated by peptide interaction with Rab11 FIP2 (data not shown), which is a crucial regulator of TRAM trafficking and the uptake of both Gram-negative and Gram-positive bacteria by macrophages (Skjesol, supra). […] P7 is derived from a C-terminal β-sheet, and so could complex with the SLAMF1 N-terminal beta sheet. Given the effect of P7-Pen on bacterial uptake, it could be used to block bacterial uptake by monocytes, thus making bacteria more exposed to antibiotic treatment.

TLR4 [2] = test: Western blot of LPS signalling in murine immortalized BMDMs; format: cell-based, mouse; settings: murine macrophages, 10 μM, LPS
Method: Western blot analysis of lysates from cells pretreated with media containing controls (water, DMSO or 10 μM control peptide C3-Pen) or P7-Pen peptide for 30 min before stimulation with LPS (K12 LPS, 100 ng/ml) for designated time periods.
Protein pellets were dissolved by heating protein pellets for 10 min at 95° C. in buffer containing 4 M urea, 1 SDS (Sigma) and NuPAGE® LDS Sample Buffer (4×) (Thermo Fisher Scientific). Otherwise, lysates were made using 1× RIPA lysis buffer (150 mM NaCl, 50 mM TrisHCl (pH 7.5), 1% Triton X100, 5 mM EDTA, protease inhibitors, phosphatase inhibitors). For Western blot analysis we used pre-cast protein gels NuPAGE™ Novex™ and iBlot Transfer Stacks iBlot Gel Transfer Device (Thermo Fisher Scientific). Proteins were transferred to the membrane by dry-blotting using iBlot® 2 NC Regular/Mini Stacks (Life Technologies) in the iBlot 2 Dry Blotting System (Life Technologies). After secondary antibody incubation, membranes were washed and incubated with HRP substrate solution (SuperSignal™ West Femto Maximum Sensitivity Substrate (Thermo Fisher Scientific)). Images were taken using Odyssey® Fc (LI-CORE). Quantification graphs were generated by the analysis of signal intensities for protein bands (protein of interest and endogenous loading control—β-tubulin from the same membrane) using Odyssey software (LI-CORE). Data were normalised to the expression levels of β-tubulin and presented as a relative fold change to the control sample.
In addition, pre-treatment of murine macrophages with P7-Pen inhibited LPS-mediated phosphorylation of TBK1 and IκBα, and decreased phosphorylation of p38 MAPK (FIG. 23).

SLAMF1-TRAM interaction = target: T2, SLAMF1-TRAM interaction (Homo sapiens, UniProt Q86XR7); test: Co-precipitation of SLAMF1 and TRAM^Flag in the presence of ECFP-tagged peptides; format: binding; settings: N-terminal ECFP-tagged peptides, HEK-293T lysates, anti-Flag IP
T2 construct: expressed in transfected cells; host or cells: HEK-293T
Excerpt: (A) Western blot analysis of SLAMF1 and TRAM^Flag co-precipitated in the presence of CFP-tagged peptides. TRAM^Flag was precipitated from cell lysates on agarose beads and distributed across 15 tubes. […] Unbound proteins/peptides were removed by a washing step, and pecipitates analysed by WB (anti-Flag IPs). Reduced SLAMF1 binding to TRAM indicates inhibition of the TRAM/SLAMF1 interaction by the peptide. (B) Sequences of the peptides that were expressed as ECFP-tagged proteins (N-terminal ECFP). Peptides 4 and 5 are not shown and were not pursued.
HEK293T cells expressing Flag-tagged proteins were lysed using 1×lysis buffer (150 mM NaCl, 50 mM TrisHCl (pH 8.0), 1 mM EDTA, 1% NP40), supplemented with EDTA-free Complete Mini protease Inhibitor Cocktail Tablets and PhosSTOP phosphatase inhibitor cocktail from Roche, 50 mM NaF and 2 mM […] (Sigma). IPs were carried out by rotation of cell lysates at 4° C. for 2 h with anti-flag (M2) agarose (Sigma). Beads were washed 5 times with lysis buffer and heated for 5 min with 1×NuPAGE® LDS Sample Buffer (Thermo Fisher Scientific) before analysis of precipitates by Western blotting. […]
Inhibition of the TRAM-SLAMF1 interaction using SLAMF1-derived peptides was tested. For the first line of experiments, SLAMF1-derived peptides were co-expressed as N-terminal ECFP-tagged proteins together with SLAMF1 and TRAM^FLAG constructs in HEK-293T cells.

TLR8 = test: Primary human macrophages stimulated with CL075: cytokine mRNA, Western blot, IRAK precipitations; format: cell-based; settings: CL075-treated primary human macrophages
Method: as §1
(§3) Primary human macrophages (7 days) were pre-treated with Pen or P7-Pen (15 μM) for 30 min before addition of LPS (100 ng/ml), FSL-1 (100 ng/ml) or CL075 (3 μg/ml). A: Protein expression in lysates for input control. B,C: Precipitations were performed using sheep anti-IRAK4 (B) or anti-IRAK1 (C) polyclonal antibodies covalently bound to magnetic beads.

TLR2 = test: Primary human macrophages stimulated with FSL-1: cytokine mRNA, Western blot, IRAK precipitations; format: cell-based
Method: as §1, §3, §2

T2 sequence (Q86XR7 whole entry): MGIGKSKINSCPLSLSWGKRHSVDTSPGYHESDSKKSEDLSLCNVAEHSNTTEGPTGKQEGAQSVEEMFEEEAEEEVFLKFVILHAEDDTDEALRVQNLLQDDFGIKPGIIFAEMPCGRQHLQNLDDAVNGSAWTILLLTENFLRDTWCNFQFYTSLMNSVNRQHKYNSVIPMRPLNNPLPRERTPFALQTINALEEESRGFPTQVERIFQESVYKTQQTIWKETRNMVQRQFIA

co-precipitation of SLAMF1 (SLAMF1): could also co-precipitate
inhibitory effect on SLAMF1-TRAM co-precipitation (SLAMF1-TRAM interaction): highest efficacy
Substance: P7: SEQ ID NO: 1; amino acids 324-333 of SLAMF1 with a proline to threonine substitution at position 10 (ITVYASVTLT; P7) [Peptide P7]
phosphorylation of p38 MAPK and IL-6, TNF and IL-1β expression (TLR4 [1]): fully inhibited
phosphorylation of TAK1 kinase and IRAK1 ubiquitination/phosphorylation (TLR4 [2]): interfered
phosphorylation of p38 MAPK and IL-6, TNF and IL-1β expression (TLR8): not
phosphorylation of p38 MAPK and IL-6, TNF and IL-1β expression (TLR2; FSL-1-treated primary human macrophages): not
phosphorylation of p38 MAPK, posttranslational modifications of IRAK1, recruitment of IRAK1 and 4 to MyD88 (TLR2; TLR2-stimulated cells, 15 μM, FSL-1 100 ng/ml): does not inhibit
